From patent publication US11130750B2, “Calcium channel inhibitors” (Cavion, Inc., priority 2017, dated 2021)

Experiments:
Assay type in all cases: cell-based
Cav3.3 = Cav3.3 (Homo sapiens (Human), UniProt Q9P0X4); assay: Whole-cell voltage clamp recording, HEK293 cells expressing T-type channel Cav3.3; conditions: holding potential −100 mV, depolarized to −30 mV for 100 ms, room temperature
Procedure: (§1) Whole-cell voltage clamp recordings were performed on cultured HEK293 cells expressing T-type channels (encoded by Cav3.1, Cav3.2, or Cav3.3 channels). All experiments were performed at room temperature. Whole-cell currents were recorded using a MultiClamp 700B amplifier and analyzed offline with pCLAMP10.4 software (Molecular Devices, LLC, Sunnyvale Calif., USA). […] Test compounds were usually applied via a rapid solution exchange system with 8 fine polyplastic tubings glued in a holder in parallel and located closely to the recorded cells. The current responses were normalized to the control, percent inhibition was calculated and sigmoidal dose-response curettes we're generated using XLFIT (IDBS, Surrey, UK) or Prism (GraphPad Software, LA Jola, Calif., US) to calculate IC50 values and Hill slopes using the following equation Y=Bottom+(Top−Bottom)/1+10{circumflex over (()}(Log EC50−X)−HillsSlope)). IC50 values are given in micromolar units.

[1] = system: Human Glioma cancer cell line U251; assay: Cell Proliferation Assay by CCK-8 Reagent; conditions: Homo sapiens, U-251, 72 h, U251 cells, 72 hours incubation, CCK-8, % viability vs vehicle control
Procedure: Human Glioma cancer cell line U251 was maintained in DMEM (Gibco, Cat #10569-10) supplemented with 10% fetal bovine serum inactivated at 56° C. (Gibco, Cat #10082-147), 100 U/mL penicillin, and 100 μg/mL streptomycin (Gibco, Cat #15140-122) at 37° C. and 1% MEM non-essential amino acid (Sigma, Cat #M7145) in a humid atmosphere containing 5% CO2. The cells were seeded at 2.5×10^3 cells/well in a 96 well plate (BD falcon, Cat #353072) with 200 pt volume/well and kept in 37° C./5% CO2 incubator for 0/N incubation. The seeding density was optimized previously based on growth curve. On the next day, plated cells were incubated with each test compounds at eight different concentrations (100, 50, 25, 12.5, 6.25, 3.125, 1.5 and 0.78) in triplicates. DMSO was used as a Vehicle control and Culture medium was used as blank control for the assay in each plate. The percentage of DMSO was kept uniform across the plate as <1%. The compound treated cells were incubated in 37° C./5% CO2 incubator for 72 hours. After incubation period, […] CCK-8 reagent (Dojindo, Cat #CK04) was added in all the wells and plate was kept in 37° C./5% CO2 incubator for 3 hours. After CCK-8 incubation, absorbance was measured @ 450 nm using Spectrophotometer (BMG, Omega Polar Star). % Viability values at each concentration were calculated with respect to Vehicle control and EC50 values were calculated using graph pad prism software and are shown in Table A.

Cav3.2 = Cav3.2 (Homo sapiens (Human), UniProt O95180); assay: Whole-cell voltage clamp recording, HEK293 cells expressing T-type channel Cav3.2; conditions: holding potential −100 mV, depolarized to −30 mV for 100 ms, room temperature
Procedure: as §1

Cav3.1 = Cav3.1 (Homo sapiens (Human), UniProt O43497); assay: Whole-cell voltage clamp recording, HEK293 cells expressing T-type channel Cav3.1; conditions: holding potential −100 mV, depolarized to −30 mV for 100 ms, room temperature
Chain of Cav3.1 (O43497 whole entry): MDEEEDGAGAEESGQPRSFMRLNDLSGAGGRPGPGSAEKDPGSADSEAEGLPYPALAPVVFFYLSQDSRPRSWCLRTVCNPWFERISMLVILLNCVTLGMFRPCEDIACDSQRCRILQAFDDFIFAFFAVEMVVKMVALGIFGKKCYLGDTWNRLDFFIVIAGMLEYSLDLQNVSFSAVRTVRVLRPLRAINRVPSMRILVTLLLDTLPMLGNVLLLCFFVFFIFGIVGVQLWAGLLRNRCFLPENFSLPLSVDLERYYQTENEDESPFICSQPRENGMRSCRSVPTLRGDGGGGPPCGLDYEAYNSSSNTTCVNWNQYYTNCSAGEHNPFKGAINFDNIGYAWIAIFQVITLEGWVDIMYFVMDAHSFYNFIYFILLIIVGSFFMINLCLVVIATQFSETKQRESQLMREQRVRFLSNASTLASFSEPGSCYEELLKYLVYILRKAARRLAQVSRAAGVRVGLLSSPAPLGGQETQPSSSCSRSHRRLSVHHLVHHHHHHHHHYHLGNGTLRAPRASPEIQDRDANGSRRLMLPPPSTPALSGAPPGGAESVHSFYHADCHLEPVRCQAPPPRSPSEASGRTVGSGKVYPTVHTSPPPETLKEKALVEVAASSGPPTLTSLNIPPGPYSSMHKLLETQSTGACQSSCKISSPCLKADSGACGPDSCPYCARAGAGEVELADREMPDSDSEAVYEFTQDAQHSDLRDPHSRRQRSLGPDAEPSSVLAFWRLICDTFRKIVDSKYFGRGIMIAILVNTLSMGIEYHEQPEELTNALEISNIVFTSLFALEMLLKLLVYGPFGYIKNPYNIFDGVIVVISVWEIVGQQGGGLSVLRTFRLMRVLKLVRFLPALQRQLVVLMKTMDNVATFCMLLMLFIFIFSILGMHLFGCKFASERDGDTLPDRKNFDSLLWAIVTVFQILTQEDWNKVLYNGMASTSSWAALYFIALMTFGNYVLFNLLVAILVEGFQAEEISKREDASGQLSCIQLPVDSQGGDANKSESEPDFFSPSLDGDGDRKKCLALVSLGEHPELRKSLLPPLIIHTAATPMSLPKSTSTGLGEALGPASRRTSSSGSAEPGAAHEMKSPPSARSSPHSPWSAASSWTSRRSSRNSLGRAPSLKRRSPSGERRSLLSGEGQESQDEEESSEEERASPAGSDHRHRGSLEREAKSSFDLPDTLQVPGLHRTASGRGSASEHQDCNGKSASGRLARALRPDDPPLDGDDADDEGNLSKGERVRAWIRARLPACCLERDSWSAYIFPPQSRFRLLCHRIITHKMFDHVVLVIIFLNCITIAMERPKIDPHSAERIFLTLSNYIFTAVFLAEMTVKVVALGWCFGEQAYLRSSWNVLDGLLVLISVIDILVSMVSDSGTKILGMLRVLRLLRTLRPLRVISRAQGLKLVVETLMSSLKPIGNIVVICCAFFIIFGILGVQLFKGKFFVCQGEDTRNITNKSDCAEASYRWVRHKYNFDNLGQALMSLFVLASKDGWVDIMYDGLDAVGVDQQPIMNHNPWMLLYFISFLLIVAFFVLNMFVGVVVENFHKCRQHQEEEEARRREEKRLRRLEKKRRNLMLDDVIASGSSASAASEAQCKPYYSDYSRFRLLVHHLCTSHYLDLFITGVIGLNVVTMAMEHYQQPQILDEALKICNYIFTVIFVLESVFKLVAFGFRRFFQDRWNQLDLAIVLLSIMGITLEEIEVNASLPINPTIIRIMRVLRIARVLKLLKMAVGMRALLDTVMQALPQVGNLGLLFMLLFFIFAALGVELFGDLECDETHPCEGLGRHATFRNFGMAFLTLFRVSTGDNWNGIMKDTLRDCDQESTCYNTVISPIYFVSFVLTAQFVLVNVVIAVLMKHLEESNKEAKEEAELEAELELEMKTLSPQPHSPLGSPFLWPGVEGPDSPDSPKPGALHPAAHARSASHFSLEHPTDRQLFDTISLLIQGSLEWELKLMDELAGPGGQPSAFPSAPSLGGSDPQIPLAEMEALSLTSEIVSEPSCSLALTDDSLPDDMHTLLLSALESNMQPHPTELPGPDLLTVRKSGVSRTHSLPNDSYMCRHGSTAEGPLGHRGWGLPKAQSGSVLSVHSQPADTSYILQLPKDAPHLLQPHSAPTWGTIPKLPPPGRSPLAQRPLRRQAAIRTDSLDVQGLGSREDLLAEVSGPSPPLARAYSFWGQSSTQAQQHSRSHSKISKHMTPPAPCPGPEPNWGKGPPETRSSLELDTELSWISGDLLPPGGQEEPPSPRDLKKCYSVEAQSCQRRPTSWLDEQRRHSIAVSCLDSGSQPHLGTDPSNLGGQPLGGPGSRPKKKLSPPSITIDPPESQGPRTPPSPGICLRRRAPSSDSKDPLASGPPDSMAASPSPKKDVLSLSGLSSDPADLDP
Procedure: as §1

Chain of Cav3.3 (Q9P0X4 whole entry, species assumed): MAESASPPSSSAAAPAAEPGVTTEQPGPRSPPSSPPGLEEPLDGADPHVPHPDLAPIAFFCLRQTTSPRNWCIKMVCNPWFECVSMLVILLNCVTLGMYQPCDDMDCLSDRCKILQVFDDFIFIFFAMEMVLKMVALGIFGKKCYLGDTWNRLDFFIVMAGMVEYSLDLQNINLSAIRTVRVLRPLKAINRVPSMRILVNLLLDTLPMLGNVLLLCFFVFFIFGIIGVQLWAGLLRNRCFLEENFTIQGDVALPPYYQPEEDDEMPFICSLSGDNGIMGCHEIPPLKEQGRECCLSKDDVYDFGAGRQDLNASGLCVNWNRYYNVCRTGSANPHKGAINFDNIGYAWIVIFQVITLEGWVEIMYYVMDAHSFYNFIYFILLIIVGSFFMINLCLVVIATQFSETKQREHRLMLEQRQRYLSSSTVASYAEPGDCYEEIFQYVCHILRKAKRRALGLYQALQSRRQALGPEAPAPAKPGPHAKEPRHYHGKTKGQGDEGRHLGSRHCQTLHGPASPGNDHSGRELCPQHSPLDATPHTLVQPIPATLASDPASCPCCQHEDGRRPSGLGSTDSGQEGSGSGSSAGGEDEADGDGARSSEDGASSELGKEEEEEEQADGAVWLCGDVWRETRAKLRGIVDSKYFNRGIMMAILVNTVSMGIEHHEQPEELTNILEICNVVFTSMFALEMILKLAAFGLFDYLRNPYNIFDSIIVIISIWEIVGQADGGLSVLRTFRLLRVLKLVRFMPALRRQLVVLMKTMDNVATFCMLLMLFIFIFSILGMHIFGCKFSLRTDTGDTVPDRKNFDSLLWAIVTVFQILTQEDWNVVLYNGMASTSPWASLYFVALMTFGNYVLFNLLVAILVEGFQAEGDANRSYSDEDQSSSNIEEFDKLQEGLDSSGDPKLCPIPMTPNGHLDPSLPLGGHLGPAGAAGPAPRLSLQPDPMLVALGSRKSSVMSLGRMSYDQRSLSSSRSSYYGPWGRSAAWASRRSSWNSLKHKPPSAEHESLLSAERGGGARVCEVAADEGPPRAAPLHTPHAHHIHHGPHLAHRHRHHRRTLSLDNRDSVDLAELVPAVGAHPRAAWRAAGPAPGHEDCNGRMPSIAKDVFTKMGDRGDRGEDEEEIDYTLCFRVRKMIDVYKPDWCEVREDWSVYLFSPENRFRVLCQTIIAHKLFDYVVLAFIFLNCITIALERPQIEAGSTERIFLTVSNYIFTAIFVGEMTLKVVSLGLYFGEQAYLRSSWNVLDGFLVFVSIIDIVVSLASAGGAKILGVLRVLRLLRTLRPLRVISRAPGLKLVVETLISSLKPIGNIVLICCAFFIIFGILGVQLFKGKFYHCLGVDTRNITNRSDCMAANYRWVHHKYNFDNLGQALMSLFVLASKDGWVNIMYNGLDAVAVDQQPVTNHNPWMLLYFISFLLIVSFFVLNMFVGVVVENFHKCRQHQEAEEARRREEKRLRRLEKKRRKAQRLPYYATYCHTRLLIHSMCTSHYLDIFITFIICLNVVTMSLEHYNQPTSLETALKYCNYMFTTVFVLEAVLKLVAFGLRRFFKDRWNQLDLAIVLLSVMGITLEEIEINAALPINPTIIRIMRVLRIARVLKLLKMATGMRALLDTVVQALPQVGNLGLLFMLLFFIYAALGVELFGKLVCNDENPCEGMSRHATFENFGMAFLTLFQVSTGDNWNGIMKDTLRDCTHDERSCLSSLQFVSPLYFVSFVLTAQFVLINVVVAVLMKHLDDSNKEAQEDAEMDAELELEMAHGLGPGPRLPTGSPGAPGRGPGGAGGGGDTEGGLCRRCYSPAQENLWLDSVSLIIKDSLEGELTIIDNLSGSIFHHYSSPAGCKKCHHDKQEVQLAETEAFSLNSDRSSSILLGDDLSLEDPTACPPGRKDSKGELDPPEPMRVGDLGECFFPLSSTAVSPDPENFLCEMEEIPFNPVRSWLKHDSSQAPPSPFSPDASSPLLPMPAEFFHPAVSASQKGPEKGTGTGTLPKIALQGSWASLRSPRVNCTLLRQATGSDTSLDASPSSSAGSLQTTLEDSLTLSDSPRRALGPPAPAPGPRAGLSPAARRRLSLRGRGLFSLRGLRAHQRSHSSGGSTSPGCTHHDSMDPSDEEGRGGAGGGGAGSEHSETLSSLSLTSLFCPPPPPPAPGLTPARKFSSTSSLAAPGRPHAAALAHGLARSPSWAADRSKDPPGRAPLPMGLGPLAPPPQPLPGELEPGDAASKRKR

Compound Cc1ccc(C)c2[nH]c(CCCN(C)CC[C@@]3(OC(=O)N4CCOCC4)CCc4cc(F)ccc4[C@@H]3C(C)C)nc12 [Example 15, (1S,2S)-2-(2-((3-(4,7-Dimethyl-1H-benzo[d]imidazol-2-yl)propyl)(methyl)amino)ethyl)-6-fluoro-1-isopropyl-1,2,3,4-tetrahydronaphthalen-2-yl morpholine-4-carboxylate] has an IC50 (Cav3.3) of 212 nM, an EC50 [1] of 4.8 µM and an IC50 (Cav3.2) of 335 nM. The IC50 (Cav3.1) was 139 nM.
